These results are taken from US10231954B2, “Neurodegenerative therapies” (LYTIX BIOPHARMA AS, priority 2014, dated 2019).

Common to all, as to type: biochemical
One test has as its target MARK1 (Homo sapiens, UniProt Q9P0L2). Description: Kinase profiling MARK1. The settings on record: for remaining activity at 100 µM: read-out: residual kinase activity, MARK1. From the text:
(§1) Any value less that 25 is considered to be highly significant inhibition.

Another test deals with T1, DDR2 (Homo sapiens, UniProt Q16832).
T1 sequence (Q16832 22-855): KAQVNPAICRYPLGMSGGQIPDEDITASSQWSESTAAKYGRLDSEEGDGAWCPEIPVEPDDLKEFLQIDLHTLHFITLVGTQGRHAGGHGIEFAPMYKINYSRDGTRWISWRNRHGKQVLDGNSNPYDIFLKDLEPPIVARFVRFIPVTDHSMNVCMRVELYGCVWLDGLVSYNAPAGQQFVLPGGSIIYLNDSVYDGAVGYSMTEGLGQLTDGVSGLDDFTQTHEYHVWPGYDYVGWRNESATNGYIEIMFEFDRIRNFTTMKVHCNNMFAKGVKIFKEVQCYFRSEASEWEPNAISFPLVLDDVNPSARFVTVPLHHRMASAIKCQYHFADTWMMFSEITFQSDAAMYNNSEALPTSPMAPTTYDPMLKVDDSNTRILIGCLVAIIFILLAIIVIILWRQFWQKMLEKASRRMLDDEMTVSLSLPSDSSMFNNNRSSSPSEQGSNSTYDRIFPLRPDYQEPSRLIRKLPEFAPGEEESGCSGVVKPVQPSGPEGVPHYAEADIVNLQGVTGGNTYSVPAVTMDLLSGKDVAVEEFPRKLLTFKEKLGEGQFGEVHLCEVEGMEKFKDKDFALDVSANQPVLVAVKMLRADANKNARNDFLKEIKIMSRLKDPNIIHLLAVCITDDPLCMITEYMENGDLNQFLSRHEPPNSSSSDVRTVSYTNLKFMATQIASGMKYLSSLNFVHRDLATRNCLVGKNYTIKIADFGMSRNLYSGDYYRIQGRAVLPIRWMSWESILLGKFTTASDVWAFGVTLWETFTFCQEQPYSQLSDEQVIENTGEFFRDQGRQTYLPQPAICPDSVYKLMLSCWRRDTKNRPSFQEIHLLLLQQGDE
Description: Kinase profiling DDR2. The settings on record: for remaining activity at 100 µM: read-out: residual kinase activity, DDR2.
From the text: as §1

For another test, the target named is PAK6 (Homo sapiens, UniProt Q9NQU5). Briefly: Kinase profiling PAK6. The settings on record: for remaining activity at 100 µM: read-out: residual kinase activity, PAK6.
Sequence of PAK6 (Q9NQU5 whole entry, species assumed): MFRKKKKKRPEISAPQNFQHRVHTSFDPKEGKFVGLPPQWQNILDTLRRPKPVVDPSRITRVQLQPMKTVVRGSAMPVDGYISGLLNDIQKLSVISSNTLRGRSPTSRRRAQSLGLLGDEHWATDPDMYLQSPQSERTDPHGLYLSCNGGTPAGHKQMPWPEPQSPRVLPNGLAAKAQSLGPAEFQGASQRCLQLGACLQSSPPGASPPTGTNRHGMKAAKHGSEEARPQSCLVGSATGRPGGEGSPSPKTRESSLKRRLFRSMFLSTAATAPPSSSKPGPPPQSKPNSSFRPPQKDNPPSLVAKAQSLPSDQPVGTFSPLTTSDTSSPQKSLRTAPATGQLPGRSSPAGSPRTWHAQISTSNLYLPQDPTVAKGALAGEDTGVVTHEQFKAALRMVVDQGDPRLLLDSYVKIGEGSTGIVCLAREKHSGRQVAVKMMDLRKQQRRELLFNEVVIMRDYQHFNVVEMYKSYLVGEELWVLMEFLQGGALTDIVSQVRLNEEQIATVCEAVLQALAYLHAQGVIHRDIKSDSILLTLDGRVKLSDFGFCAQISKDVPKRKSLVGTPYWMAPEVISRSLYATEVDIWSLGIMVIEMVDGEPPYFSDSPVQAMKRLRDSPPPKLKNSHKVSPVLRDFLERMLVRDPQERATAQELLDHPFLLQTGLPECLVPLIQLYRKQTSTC
From the text: as §1

For another test, the target named is TTBK1 (Homo sapiens, UniProt Q5TCY1). Description: Kinase profiling TTBK1. The settings on record: for remaining activity at 100 µM: read-out: residual kinase activity, TTBK1.
Sequence of TTBK1 (Q5TCY1 whole entry, species assumed): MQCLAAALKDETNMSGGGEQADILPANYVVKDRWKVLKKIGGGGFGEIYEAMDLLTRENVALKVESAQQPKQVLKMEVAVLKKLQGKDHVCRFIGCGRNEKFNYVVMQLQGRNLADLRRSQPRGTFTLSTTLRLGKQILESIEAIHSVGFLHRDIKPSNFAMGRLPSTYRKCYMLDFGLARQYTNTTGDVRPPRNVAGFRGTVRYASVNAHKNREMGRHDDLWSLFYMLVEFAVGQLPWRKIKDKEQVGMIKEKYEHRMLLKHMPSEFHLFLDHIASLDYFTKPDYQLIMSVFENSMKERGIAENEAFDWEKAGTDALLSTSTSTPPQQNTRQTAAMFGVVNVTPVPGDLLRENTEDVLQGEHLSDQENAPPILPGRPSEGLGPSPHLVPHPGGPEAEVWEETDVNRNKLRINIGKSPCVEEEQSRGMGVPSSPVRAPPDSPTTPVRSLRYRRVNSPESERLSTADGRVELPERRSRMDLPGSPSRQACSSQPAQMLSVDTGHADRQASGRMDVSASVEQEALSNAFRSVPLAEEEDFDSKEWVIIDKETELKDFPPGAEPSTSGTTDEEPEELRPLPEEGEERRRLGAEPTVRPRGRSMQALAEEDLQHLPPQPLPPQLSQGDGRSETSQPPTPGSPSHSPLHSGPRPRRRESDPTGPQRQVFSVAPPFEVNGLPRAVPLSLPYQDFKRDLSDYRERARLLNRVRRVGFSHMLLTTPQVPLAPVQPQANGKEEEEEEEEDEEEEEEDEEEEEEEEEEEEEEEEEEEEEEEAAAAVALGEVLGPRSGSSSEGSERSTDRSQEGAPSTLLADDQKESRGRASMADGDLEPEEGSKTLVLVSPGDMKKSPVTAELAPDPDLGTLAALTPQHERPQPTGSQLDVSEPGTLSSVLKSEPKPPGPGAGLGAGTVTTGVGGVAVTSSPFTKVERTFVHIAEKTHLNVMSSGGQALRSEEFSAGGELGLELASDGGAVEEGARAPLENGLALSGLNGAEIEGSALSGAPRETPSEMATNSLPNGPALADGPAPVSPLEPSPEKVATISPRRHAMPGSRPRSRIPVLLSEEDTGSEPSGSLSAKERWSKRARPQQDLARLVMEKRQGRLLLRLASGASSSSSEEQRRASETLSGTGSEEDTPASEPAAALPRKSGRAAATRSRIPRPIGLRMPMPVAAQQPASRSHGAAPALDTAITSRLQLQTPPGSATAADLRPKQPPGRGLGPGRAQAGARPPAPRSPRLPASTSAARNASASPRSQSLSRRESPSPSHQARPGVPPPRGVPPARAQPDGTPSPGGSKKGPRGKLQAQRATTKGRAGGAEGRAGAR
From the text: as §1

The next test deals with PAK2 (Homo sapiens, UniProt Q13177). Description: Kinase profiling PAK2. The settings on record: for remaining activity at 100 µM: read-out: residual kinase activity, PAK2.
Sequence of PAK2 (Q13177 whole entry, species assumed): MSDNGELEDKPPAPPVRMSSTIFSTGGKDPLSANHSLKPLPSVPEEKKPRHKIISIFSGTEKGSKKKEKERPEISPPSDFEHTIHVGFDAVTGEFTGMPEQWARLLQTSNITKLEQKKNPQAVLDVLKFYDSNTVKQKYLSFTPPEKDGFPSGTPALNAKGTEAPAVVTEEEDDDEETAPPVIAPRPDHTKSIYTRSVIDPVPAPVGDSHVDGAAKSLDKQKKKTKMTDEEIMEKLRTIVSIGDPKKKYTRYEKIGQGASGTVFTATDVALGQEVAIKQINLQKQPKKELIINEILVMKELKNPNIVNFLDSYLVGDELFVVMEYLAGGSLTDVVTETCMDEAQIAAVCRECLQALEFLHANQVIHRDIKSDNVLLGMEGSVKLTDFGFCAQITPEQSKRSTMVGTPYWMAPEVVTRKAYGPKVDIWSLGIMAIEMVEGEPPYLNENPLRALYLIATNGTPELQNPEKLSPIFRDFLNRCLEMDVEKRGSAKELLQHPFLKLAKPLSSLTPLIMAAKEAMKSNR
From the text: as §1

The next test concerns the target DAPK1 (Homo sapiens, UniProt P53355). Briefly: Kinase profiling DAPK1. The settings on record: for remaining activity at 100 µM: read-out: residual kinase activity, DAPK1.
From the text: as §1

The target of a further test is T2, EIF2AK3 (Homo sapiens, UniProt Q9NZJ5).
T2 sequence (Q9NZJ5 30-1116): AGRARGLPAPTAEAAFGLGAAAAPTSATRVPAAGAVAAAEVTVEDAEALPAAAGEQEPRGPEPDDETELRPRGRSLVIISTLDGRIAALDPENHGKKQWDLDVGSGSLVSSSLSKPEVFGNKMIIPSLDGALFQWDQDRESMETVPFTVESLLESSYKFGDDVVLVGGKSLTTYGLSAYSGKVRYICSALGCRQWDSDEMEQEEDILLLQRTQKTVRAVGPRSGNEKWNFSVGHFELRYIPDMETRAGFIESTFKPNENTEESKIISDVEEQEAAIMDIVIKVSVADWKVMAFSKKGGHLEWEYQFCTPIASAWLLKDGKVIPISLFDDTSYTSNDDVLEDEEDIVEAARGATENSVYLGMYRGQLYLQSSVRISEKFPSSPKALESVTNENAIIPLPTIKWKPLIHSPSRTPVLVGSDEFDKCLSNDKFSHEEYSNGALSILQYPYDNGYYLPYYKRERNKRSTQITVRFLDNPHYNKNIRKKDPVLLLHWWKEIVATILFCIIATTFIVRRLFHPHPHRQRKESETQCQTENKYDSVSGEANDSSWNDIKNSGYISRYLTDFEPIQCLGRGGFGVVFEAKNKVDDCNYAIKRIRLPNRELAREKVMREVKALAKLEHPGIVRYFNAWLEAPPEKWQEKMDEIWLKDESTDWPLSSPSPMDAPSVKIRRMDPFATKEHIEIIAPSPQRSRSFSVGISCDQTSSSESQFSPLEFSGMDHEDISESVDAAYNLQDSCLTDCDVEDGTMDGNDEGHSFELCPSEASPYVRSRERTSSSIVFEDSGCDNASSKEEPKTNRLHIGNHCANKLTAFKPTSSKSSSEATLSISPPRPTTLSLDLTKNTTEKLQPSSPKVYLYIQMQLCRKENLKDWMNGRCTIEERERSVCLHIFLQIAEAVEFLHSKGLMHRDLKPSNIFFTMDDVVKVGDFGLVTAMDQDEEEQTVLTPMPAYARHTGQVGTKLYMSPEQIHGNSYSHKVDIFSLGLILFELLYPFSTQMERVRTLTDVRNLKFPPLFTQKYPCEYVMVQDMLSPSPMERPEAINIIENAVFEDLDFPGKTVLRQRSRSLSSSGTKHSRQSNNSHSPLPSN
Briefly: Kinase profiling EIF2AK3. The settings on record: for remaining activity at 100 µM: read-out: residual kinase activity, EIF2AK3.
From the text: as §1

Where [1] appears, read: 100 micromolar inhibitor concentration, 100 is no change.
The mark [2] stands for this setting: 100 micromolar inhibitor, 100 = no change.

Read-outs that look alike come from different tables or passages of the source.

Sequence of MARK1 (Q9P0L2 whole entry, species assumed): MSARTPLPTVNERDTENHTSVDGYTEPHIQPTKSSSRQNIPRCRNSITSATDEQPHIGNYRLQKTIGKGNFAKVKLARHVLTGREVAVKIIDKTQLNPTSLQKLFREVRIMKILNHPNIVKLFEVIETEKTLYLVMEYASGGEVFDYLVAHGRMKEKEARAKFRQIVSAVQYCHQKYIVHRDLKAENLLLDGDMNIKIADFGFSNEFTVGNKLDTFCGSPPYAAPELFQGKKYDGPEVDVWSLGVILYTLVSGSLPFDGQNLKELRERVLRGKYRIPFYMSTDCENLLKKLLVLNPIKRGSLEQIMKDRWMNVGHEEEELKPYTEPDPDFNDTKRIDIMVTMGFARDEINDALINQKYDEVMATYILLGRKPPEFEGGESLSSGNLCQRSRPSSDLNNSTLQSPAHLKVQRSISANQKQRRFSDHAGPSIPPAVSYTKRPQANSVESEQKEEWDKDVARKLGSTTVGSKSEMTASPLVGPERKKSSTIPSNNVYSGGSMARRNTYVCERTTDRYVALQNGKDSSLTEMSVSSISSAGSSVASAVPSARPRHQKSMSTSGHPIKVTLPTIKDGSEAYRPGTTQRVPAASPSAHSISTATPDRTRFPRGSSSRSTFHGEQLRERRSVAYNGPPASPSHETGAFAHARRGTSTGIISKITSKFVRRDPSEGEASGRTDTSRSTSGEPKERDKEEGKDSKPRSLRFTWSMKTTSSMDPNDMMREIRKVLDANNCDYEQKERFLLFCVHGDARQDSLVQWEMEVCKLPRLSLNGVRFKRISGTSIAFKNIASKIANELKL
Sequence of DAPK1 (P53355 whole entry, species assumed): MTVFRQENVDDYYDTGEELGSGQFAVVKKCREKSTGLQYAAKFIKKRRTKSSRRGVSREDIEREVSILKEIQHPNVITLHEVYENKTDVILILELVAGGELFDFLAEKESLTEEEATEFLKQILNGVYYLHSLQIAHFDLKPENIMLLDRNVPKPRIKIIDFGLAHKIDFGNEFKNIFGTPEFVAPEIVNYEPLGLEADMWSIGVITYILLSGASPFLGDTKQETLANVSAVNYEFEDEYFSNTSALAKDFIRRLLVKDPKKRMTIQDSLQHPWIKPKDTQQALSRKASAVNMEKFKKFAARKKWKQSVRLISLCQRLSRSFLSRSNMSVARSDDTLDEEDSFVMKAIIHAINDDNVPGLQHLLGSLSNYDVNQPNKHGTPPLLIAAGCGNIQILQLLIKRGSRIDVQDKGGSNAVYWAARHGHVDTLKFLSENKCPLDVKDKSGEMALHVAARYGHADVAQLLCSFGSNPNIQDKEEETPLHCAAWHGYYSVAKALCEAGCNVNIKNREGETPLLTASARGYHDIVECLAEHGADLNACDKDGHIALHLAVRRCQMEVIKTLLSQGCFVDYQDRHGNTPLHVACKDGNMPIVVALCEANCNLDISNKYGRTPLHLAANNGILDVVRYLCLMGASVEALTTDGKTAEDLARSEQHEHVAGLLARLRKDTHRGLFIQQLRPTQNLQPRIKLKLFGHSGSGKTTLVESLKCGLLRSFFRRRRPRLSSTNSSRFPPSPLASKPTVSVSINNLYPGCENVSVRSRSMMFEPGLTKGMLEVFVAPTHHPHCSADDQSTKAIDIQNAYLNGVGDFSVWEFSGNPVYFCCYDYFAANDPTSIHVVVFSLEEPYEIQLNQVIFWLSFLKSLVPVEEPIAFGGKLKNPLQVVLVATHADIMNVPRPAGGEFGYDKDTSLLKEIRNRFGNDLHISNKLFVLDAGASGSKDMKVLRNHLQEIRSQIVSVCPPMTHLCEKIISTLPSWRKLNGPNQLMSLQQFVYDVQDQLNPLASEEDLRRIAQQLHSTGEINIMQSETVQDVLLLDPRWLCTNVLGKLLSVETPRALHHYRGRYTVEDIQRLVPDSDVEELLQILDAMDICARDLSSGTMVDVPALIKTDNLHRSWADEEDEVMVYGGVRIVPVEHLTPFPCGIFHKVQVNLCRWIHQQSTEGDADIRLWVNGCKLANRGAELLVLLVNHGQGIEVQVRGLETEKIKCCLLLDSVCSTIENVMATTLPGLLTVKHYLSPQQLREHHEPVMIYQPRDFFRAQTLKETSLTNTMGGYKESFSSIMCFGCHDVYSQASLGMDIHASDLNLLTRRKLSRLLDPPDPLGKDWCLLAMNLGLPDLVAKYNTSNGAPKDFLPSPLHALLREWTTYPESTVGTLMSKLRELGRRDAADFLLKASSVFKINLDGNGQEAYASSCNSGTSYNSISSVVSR

Regarding `CC(=O)Nc1nc2cc(O)ccc2s1` [Compound 01-66, N-(5-hydroxybenzo[d]thiazol-2-yl)acetamide], the remaining activity at 100 µM came to 56% on MARK1; 65% on DDR2; 90% on PAK6; 68% at TTBK1; 93% on PAK2; 44% at DAPK1. In addition, the remaining activity at 100 µM at EIF2AK3 is 59%.
On to `CC(=O)Nc1nc2ccc(O)cc2s1` [Compound 01-71], for which the remaining activity at 100 µM at MARK1 (setting [1]) came to 33%; on DDR2 (setting [1]), 56%; at PAK6 (setting [1]) it was 81%; on TTBK1 (setting [1]), 61%; at PAK2 (setting [1]), 102%; on DAPK1 (setting [1]), 21%. Moreover, the remaining activity at 100 µM at EIF2AK3 (setting [1]) was found to be 77%.
For the compound `CC(=O)Nc1nc2ccc(C(F)(F)F)cc2s1` [Compound 01-90], the remaining activity at 100 µM is 90% on MARK1 (setting [1]); 62% at DDR2 (setting [1]); 106% on PAK6 (setting [1]); 88% on TTBK1 (setting [1]); 103% at PAK2 (setting [1]); 85% at DAPK1 (setting [1]). Also, the remaining activity at 100 µM on EIF2AK3 (setting [1]) was found to be 105%.
For the compound `CC(=O)Nc1nc2ccc(C#N)cc2s1` [Compound 01-94], the remaining activity at 100 µM on MARK1 (setting [1]) amounted to 60%; at DDR2 (setting [1]) it was 93%; at PAK6 (setting [1]) it was 92%; at TTBK1 (setting [1]) it was 73%; at PAK2 (setting [1]), 101%; on DAPK1 (setting [1]), 41%. The remaining activity at 100 µM at EIF2AK3 (setting [1]) worked out at 78%.
Consider `CC(=O)Nc1cccc(NC(=O)c2nc3ccc(O)cc3s2)c1` [Compound 03-07, N-(3-acetamidophenyl)-6-hydroxybenzo[d]thiazole-2-carboxamide], for which the remaining activity at 100 µM at MARK1 (setting [2]) was determined as 106%; on DDR2 (setting [2]), 90%; on PAK6 (setting [2]) it was 106%; at TTBK1 (setting [2]), 93%; at PAK2 (setting [2]) it was 90%; at DAPK1 (setting [2]), 28%. Further, the remaining activity at 100 µM at EIF2AK3 (setting [2]) amounted to 69%.
As for `O=C(Nc1nc2cc(O)ccc2s1)c1ccncc1` [Compound 03-11], the “residual kinase activity, MARK1” value at MARK1 (setting [1]) stood at 90. For the same compound, the “residual kinase activity, DDR2” value on DDR2 (setting [1]) is 115. In addition, on PAK6 (setting [1]), the “residual kinase activity, PAK6” value is given as 90. For the same compound, the “residual kinase activity, TTBK1” value at TTBK1 (setting [1]) is recorded as 99. Further, at PAK2 (setting [1]), the “residual kinase activity, PAK2” value was 88. The “residual kinase activity, DAPK1” value on DAPK1 (setting [1]) is reported as 62. In addition, the “residual kinase activity, EIF2AK3” value on EIF2AK3 (setting [1]) is 65.
Take `O=C(Nc1nc2ccc(O)cc2s1)c1ccccn1` [Compound 03-12]: the “residual kinase activity, MARK1” value at MARK1 (setting [1]) was determined as 89. For the same compound, the “residual kinase activity, DDR2” value on DDR2 (setting [1]) amounted to 104. Also, the “residual kinase activity, PAK6” value on PAK6 (setting [1]) was determined as 101. Also, the “residual kinase activity, TTBK1” value on TTBK1 (setting [1]) amounted to 91. In addition, the “residual kinase activity, PAK2” value on PAK2 (setting [1]) came to 104. Further, on DAPK1 (setting [1]), the “residual kinase activity, DAPK1” value worked out at 25. Also, the “residual kinase activity, EIF2AK3” value on EIF2AK3 (setting [1]) is given as 73.
Regarding `O=C(Nc1nc2cc(O)ccc2s1)c1ccccn1` [Compound 03-13], the “residual kinase activity, MARK1” value at MARK1 (setting [1]) stood at 99. The “residual kinase activity, DDR2” value at DDR2 (setting [1]) came to 85. The “residual kinase activity, PAK6” value on PAK6 (setting [1]) was 99. The “residual kinase activity, TTBK1” value on TTBK1 (setting [1]) is on record as 100. For the same compound, the “residual kinase activity, PAK2” value on PAK2 (setting [1]) is reported as 119. Moreover, at DAPK1 (setting [1]), the “residual kinase activity, DAPK1” value amounted to 58. In addition, the “residual kinase activity, EIF2AK3” value at EIF2AK3 (setting [1]) amounted to 89.
With `COc1ccc2sc(NC(C)=O)nc2c1` [Compound 03-21], the remaining activity at 100 µM at MARK1 (setting [1]) was 98%; on DDR2 (setting [1]), 102%; on PAK6 (setting [1]), 108%; at TTBK1 (setting [1]) it was 93%; on PAK2 (setting [1]), 95%; at DAPK1 (setting [1]), 79%. Moreover, the remaining activity at 100 µM at EIF2AK3 (setting [1]) came out at 82%.
With `CC(=O)Nc1nc2ccccc2s1` [Compound 03-32], the “residual kinase activity, MARK1” value on MARK1 (setting [1]) came to 77. Moreover, the “residual kinase activity, DDR2” value at DDR2 (setting [1]) was determined as 97. Besides, the “residual kinase activity, PAK6” value on PAK6 (setting [1]) is on record as 92. The “residual kinase activity, TTBK1” value at TTBK1 (setting [1]) turned out to be 80. Moreover, at PAK2 (setting [1]), the “residual kinase activity, PAK2” value worked out at 90. The “residual kinase activity, DAPK1” value at DAPK1 (setting [1]) came out at 89. Besides, the “residual kinase activity, EIF2AK3” value at EIF2AK3 (setting [1]) was found to be 104.
As to `O=C(Nc1nc2cc(O)ccc2s1)c1cccnc1` [Compound 03-33], the “residual kinase activity, MARK1” value at MARK1 (setting [1]) is on record as 103. In addition, the “residual kinase activity, DDR2” value at DDR2 (setting [1]) is on record as 109. Moreover, the “residual kinase activity, PAK6” value on PAK6 (setting [1]) turned out to be 119. Further, the “residual kinase activity, TTBK1” value on TTBK1 (setting [1]) worked out at 89. For the same compound, the “residual kinase activity, PAK2” value on PAK2 (setting [1]) is 114. Moreover, the “residual kinase activity, DAPK1” value at DAPK1 (setting [1]) was 82. At EIF2AK3 (setting [1]), the “residual kinase activity, EIF2AK3” value is 87.
Turning to `O=C(Nc1nc2ccc(O)cc2s1)c1ccccc1` [Compound 03-60], the “residual kinase activity, MARK1” value at MARK1 (setting [1]) amounted to 96. The “residual kinase activity, DDR2” value at DDR2 (setting [1]) is reported as 112. Also, the “residual kinase activity, PAK6” value at PAK6 (setting [1]) came to 104. Further, the “residual kinase activity, TTBK1” value at TTBK1 (setting [1]) turned out to be 46. In addition, on PAK2 (setting [1]), the “residual kinase activity, PAK2” value worked out at 94. Further, at DAPK1 (setting [1]), the “residual kinase activity, DAPK1” value is on record as 19. The “residual kinase activity, EIF2AK3” value on EIF2AK3 (setting [1]) turned out to be 45.
As to `CC(=O)Nc1nc2cc(C(F)(F)F)ccc2s1` [Compound 03-73], the remaining activity at 100 µM is 88% on MARK1 (setting [1]); 111% on DDR2 (setting [1]); 11% on PAK6 (setting [1]); 94% on TTBK1 (setting [1]); 85% at PAK2 (setting [1]); 93% at DAPK1 (setting [1]). The remaining activity at 100 µM at EIF2AK3 (setting [1]) is 100%.
